The values that follow are results of earlier work, collected in patent publication US20210023041A1, “FORMULATIONS AND COMPOSITIONS OF DOCETAXEL” (Zhuhai Beihai Biotech Co., Ltd., priority 2018, published 2021).

Each structure is given as a SMILES string.

In the case of `CC(=O)O[C@@]12CO[C@@H]1C[C@H](O)[C@@]1(C)C(=O)[C@H](O)C3=C(C)[C@@H](OC(=O)[C@H](O)[C@@H](NC(=O)OC(C)(C)C)c4ccccc4)C[C@@](O)([C@@H](OC(=O)c4ccccc4)[C@H]21)C3(C)C` [Docetaxel], the solubility in water result is given as “practically insoluble in water”. In addition, the “in vitro binding to plasma proteins” value in the data set with plasma proteins (in three cancer patients) is “approximately 97%”. Besides, in the data set on plasma proteins (in vitro studies, mainly to α1-acid glycoprotein, albumin, and lipoproteins), the protein bound result is “about 94%”. Moreover, in the data set with microtubule, the “potency in inhibiting microtubule depolymerization relative to paclitaxel” value is listed as “twice as potent as paclitaxel”.
